These are literature values, as cited in patent publication US20060211766A1, “Gelled immunomodulating topical compositions and a method of treating warts and other human papilloma virus skin infections” (priority 2004, published 2006).

This data set deals with rodents. To be noted: in rodents.

As for `CC(C)=O` [Acetone], the LD/50 is 10.7 mg per kilogram.
